The values below come from PMC4354462, “Design, Characterization, and First-In-Human Study of the Vascular Actions of a Novel Biased Apelin Receptor Agonist” (Hypertension, 2015).

Positions of bridges follow the written chain, without caps; N, C: chain ends. Residues, ends and D or L forms follow the SMILES beside them.

Data set [1] has as its system male Wistar rats. The experiment in a line: Systemic infusions in anaesthetized rat (haemodynamics, echocardiography). In kind it is in vivo. The protocol:
Blood pressure (BP) was monitored continuously via an intra-arterial line and echocardiography was used after each bolus to determine changes in heart […], stroke volume, cardiac output (from peak velocity and velocity time interval) and respiratory rate. Rectal temperature was monitored throughout. BP was analyzed using absolute change in mean BP from the baseline taken just before the bolus and area under the curve analysis.

Data set [2] is described as follows: In vivo plasma half-life of apelin peptides. The conditions noted are these: rat, iv. The text has this: Rats (230–260 g), anaesthetized with 2% isoflurane, were given a single intravenous bolus (600 nmol) of apelin or MM07 (both n=3).
The target of data set [3] is T1, human apelin receptor (Homo sapiens, UniProt P35414).
T1 sequence (P35414 1-380): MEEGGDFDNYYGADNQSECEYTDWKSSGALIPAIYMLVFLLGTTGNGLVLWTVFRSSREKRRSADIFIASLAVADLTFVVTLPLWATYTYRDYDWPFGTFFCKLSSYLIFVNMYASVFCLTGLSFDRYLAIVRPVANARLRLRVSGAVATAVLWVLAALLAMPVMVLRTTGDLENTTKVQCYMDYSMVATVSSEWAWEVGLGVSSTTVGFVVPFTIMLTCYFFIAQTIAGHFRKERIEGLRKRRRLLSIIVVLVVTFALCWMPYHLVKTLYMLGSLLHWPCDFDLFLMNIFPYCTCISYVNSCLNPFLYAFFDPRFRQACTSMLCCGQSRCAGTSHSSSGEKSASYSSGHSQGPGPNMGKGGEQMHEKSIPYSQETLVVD
Description: Competition binding in CHO-K1-APJ cells. The conditions noted are these: competition for [Glp65,Nle75,Tyr77][125I]apelin-13 binding; human apelin receptors in CHO-K1 cells. The protocol:
Initial assays were performed in cells expressing the human apelin receptor (CHO-K1-APJ cells; Cerep, Celle L’Evescault, France). […] Data were analyzed (KELL package; Biosoft, UK) to obtain the dissociation constant KD (concentration of ligand occupying 50% of receptors).

In data set [4] the test system is human hand vein. The experiment in a line: Aellig hand vein technique study in human volunteers. The format is in vivo. The source says: All volunteers (n=12 forearm plethysmography, n=10 hand vein studies) gave written informed consent, and studies adhered to the principles of the Declaration of Helsinki and were approved by the National Research Ethics Service Committee East of England–Cambridge Central (REC 11/EE/0305).

In data set [5] the target is T1, human apelin receptor. The experiment in a line: Competition binding in homogenate of human left ventricle. The conditions noted are these: competition for 0.1 nmol/L [Glp65,Nle75,Tyr77][125I]apelin-13; human heart (left ventricle homogenate); n=3.

By half-life is commonly meant the time needed for the level to fall by half in the phase considered. Low readings indicate rapid decline, high ones slow decline. Broadly, the Kd is the equilibrium constant for the complex coming apart. A lower Kd goes with higher affinity.

In the case of `CC(=O)NC(C(=O)O)C(C)(C)SN=O` (racemic) [SNAP, S-Nitroso-N-acetyl-D,L-penicillamine], the “BP response to SNAP” value in data set [1] (given after peptide doses, both peptide-treated groups) was “profound fall in BP”.

On to `CSCC[C@H](NC(=O)[C@@H]1CCCN1C(=O)CNC(=O)[C@H](CCCCN)NC(=O)[C@H](Cc1cnc[nH]1)NC(=O)[C@@H]1CSSC[C@H](N)C(=O)N[C@@H](CCCNC(=N)N)C(=O)N2CCC[C@H]2C(=O)N[C@@H](CCCNC(=N)N)C(=O)N[C@@H](CC(C)C)C(=O)N1)C(=O)N1CCC[C@H]1C(=O)N[C@@H](Cc1ccccc1)C(=O)O` [MM07] (H-CRPRLCHKGPMPF-OH; disulfide 1-6), for which, in data set [2], the half-life is 17.4 ± 0.4 min. The Kd came out at 300 nM in data set [3] and 172 nM in data set [5]. For the same molecule, the “adverse events in hand vein study” value in data set [4] (human, in vivo) is reported as “no adverse events observed”.

Regarding `CSCC[C@H](NC(=O)[C@@H]1CCCN1C(=O)CNC(=O)[C@H](CCCCN)NC(=O)[C@H](Cc1cnc[nH]1)NC(=O)[C@H](CO)NC(=O)[C@H](CC(C)C)NC(=O)[C@H](CCCNC(=N)N)NC(=O)[C@@H]1CCCN1C(=O)[C@H](CCCNC(=N)N)NC(=O)[C@@H]1CCC(=O)N1)C(=O)N1CCC[C@H]1C(=O)N[C@@H](Cc1ccccc1)C(=O)O` [[Pyr^1]apelin-13, reference compound], the respiratory rate entry in data set [1] (incremental bolus doses 1-300 nmol) is reported as “Neither peptide caused a significant change”. In data set [4] (human volunteers), the “adverse events in hand vein study” value is recorded as “no adverse events observed”.
